The source of these data is US7524936B2, “Mitogenic oxygenase regulators” (Emory University, priority 2000, dated 2009).

Test [1] has as its system Nox 4 enzyme and Nox 5 enzyme. Description: cell-free assay for Nox 4 / Nox 5 NADPH-oxidase activity (NADPH-dependent chemiluminescence). The format is biochemical, human. The following applies: MgCl2 1-5 mM; cell lysate, 200 μM NADPH, 10 μM lucigenin, 37° C. The method, then:
In an alternate and preferred embodiment of the present invention, cells that are stably transfected with Nox 4 (YA28), Nox 5 (YA28) or with empty vector (NEF2) are grown in 10 cm tissue culture plates in medium containing DMEM, 10% calf serum, 100 units/ml penicillin, 100 μg/ml streptomycin, and 1 μg/ml puromycin to approximately 80% confluency. Cells (five tissue culture plates of each cell type) are washed briefly with 5 ml phosphate buffered saline (PBS) then dissociated from the plates with PBS containing 5 mM EDTA. Cells are pelleted by centrifuging briefly at 1000×g.
To permeabilize the cells, freeze thaw lysis is carried out and this is followed by passage of the cell material through a small bore needle. The supernatant is removed and the cells are frozen on dry ice for 15 minutes. […]
The cell lysates are assayed for protein concentration using the BioRad protein assay system. […] The reaction is initiated by adding 1.5 mM NADPH and 75 μM lucigenin to the assay mix to give a final concentration of 200 μM NADPH and 10 μM lucigenin, and the chemiluminescence is monitored immediately. […] The plate is monitored continuously for 60 minutes and the maximal relative luminescence unit (RLU) value for each sample is used for the graph. […]

The subject of test [2] is lysates of NIH 3T3 cells stably transfected with the human Nox 4 gene or human Nox 5 gene. Description: NADPH-dependent superoxide generation, lucigenin luminescence assay in cell lysates. The conditions noted are these: 30 μg cell lysate, 200 μM NADPH, 500 μM lucigenin. The format is biochemical. The method, then: In one embodiment of the present invention, NIH 3T3 cells stably transfected with the human Nox 4 gene (SEQ ID NO:1) or human Nox 5 gene (SEQ ID NO:3) are analyzed for superoxide generation using the lucigenin (Bis-N-methylacridinium luminescence assay (Sigma, St. Louis, Mo., Li et al. (1998) J. Biol. Chem. 273, 2015-2023). Cells are washed with cold HANKS' solution and homogenized on ice in HANKS' buffer containing 15% sucrose using a Dounce homogenizer. Cell lysates are frozen immediately in a dry ice/ethanol bath. For the assay, 30 μg of cell lysate is mixed with 200 μM NADPH and 500 μM lucigenin. Luminescence is monitored using a LumiCounter (Packard) at three successive one minute intervals and the highest value was used for comparison. Protein concentration is determined by the Bradford method.
Superoxide generation is monitored in lysates from some of the stably transfected cell lines and is compared with superoxide generation by the untransfected NIH 3T3 cell lysates.

As to `[Cl-].[Cl-].[Mg+2]` [MgCl2], the “enhancement of NADPH-oxidase activity” value in test [1] is on record as “about 2 fold”.
In the case of `c1ccc2c(c1)[I+]c1ccccc1-2` [diphenylene iodonium, reference compound], the “luminescent signal (superoxide generation)” value (shortened to “luminescent signal”) in test [2] was “inhibited”.
In the case of “superoxide dismutase [reference compound]”, the “luminescent signal” value in test [2] is on record as “inhibited”.

B1: p47phox: recombinant human cytosolic factor of the phagocyte respiratory-burst oxidase (protein, UniProt P14598 1-390, looked up)
Neutrophil cytosol factor 1: MGDTFIRHIALLGFEKRFVPSQHYVYMFLVKWQDLSEKVVYRRFTEIYEFHKTLKEMFPIEAGAINPENRIIPHLPAPKWFDGQRAAENRQGTLTEYCSTLMSLPTKISRCPHLLDFFKVRPDDLKLPTDNQTKKPETYLMPKDGKSTATDITGPIILQTYRAIANYEKTSGSEMALSTGDVVEVVEKSESGWWFCQMKAKRGWIPASFLEPLDSPDETEDPEPNYAGEPYVAIKAYTAVEGDEVSLLEGEAVEVIHKLLDGWWVIRKDDVTGYFPSMYLQKSGQDVSQAQRQIKRGAPPRRSSIRNAHSIHQRSRKRLSQDAYRRNSVRFLQQRRRQARPGPQSPGSPLEEERQTQRSKPQPAVPPRPSADLILNRCSESTKRKLASAV
With B1, in test [2], the “luminescent signal” value was “unaffected”.

B2: p67phox: recombinant human cytosolic factor of the phagocyte respiratory-burst oxidase (protein, UniProt P19878 1-526, looked up)
Neutrophil cytosol factor 2: MSLVEAISLWNEGVLAADKKDWKGALDAFSAVQDPHSRICFNIGCMYTILKNMTEAEKAFTRSINRDKHLAVAYFQRGMLYYQTEKYDLAIKDLKEALIQLRGNQLIDYKILGLQFKLFACEVLYNIAFMYAKKEEWKKAEEQLALATSMKSEPRHSKIDKAMECVWKQKLYEPVVIPVGKLFRPNERQVAQLAKKDYLGKATVVASVVDQDSFSGFAPLQPQAAEPPPRPKTPEIFRALEGEAHRVLFGFVPETKEELQVMPGNIVFVLKKGNDNWATVMFNGQKGLVPCNYLEPVELRIHPQQQPQEESSPQSDIPAPPSSKAPGRPQLSPGQKQKEEPKEVKLSVPMPYTLKVHYKYTVVMKTQPGLPYSQVRDMVSKKLELRLEHTKLSYRPRDSNELVPLSEDSMKDAWGQVKNYCLTLWCENTVGDQGFPDEPKESEKADANNQTTEPQLKKGSQVEALFSYEATQPEDLEFQEGDIILVLSKVNEEWLEGECKGKVGIFPKVFVEDCATTDLESTRREV
Turning to B2, in test [2], the “luminescent signal” value is “unaffected”.
